Test results reported in PubChem BioAssay (NCI).
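Cultured in 96-well plates, cells were exposed to test compound for 48 hours across five concentrations. GI50 = concentration required for 50% inhibition of growth. TGI is the concentration that stops growth completely.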

What was measured:
Assay in all cases: DTP human tumour cell line panel, 48 h
[1] = tested on: HOP-62 NSCLC
[2] = tested on: SK-OV-3 ovarian
[3] = tested on: RXF 393 renal
[4] = tested on: HT29 colon
[5] = tested on: T-47D breast
[6] = tested on: PC-3 prostate
[7] = tested on: SF-268 CNS
[8] = tested on: MALME-3M melanoma
[9] = tested on: 786-0 renal
[10] = tested on: UACC-257 melanoma

Structure (SMILES) | GI50 [1] [µM] | TGI [1] [µM] | GI50 [2] [µM] | TGI [2] [µM] | GI50 [3] [µM] | TGI [3] [µM] | GI50 [4] [µM] | TGI [4] [µM] | GI50 [5] [µM] | TGI [5] [µM] | GI50 [6] [µM] | TGI [6] [µM] | GI50 [7] [µM] | TGI [7] [µM] | GI50 [8] [µM] | TGI [8] [µM] | GI50 [9] [µM] | TGI [9] [µM] | GI50 [10] [µM] | TGI [10] [µM]
C=C1C(=O)O[C@H]2[C@H]1CC/C(Cn1cc(-c3cc(C)c(C)cc3C)nn1)=C\CC[C@@]1(C)O[C@@H]21 | 1.77 | 3.97 | 11.7 | 23.9 | 0.962 | 2.21 | 0.502 | 1.91 | 0.539 | 2.45 | 1.47 | 3 | 1.52 | 3.06 | 1.43 | 3 | 1.5 | 3.18 |  | 
COc1ccc2c(c1)/C(=C/c1cc(OC)c(OC)c(OC)c1)C(=O)N2C | 4.63 | 97.6 | 3.2 | 12.5 |  |  | 2.9 | > 88.1 | 2.59 | 6.45 | 2.92 | > 100 | 2.39 | 6.72 | 2.87 | > 29.2 | 3.82 | 23.7 | 7.88 | > 80.4
C=C1C(=O)OC2CC(C)C3C=CC(=O)C3CC12 (stereo not given) |  | 31.8 |  | 33.3 |  | 3.03 |  | 4.83 |  | 5.77 |  | 7.17 |  | 7.4 |  | 4.08 |  | 3.66 |  | 4.9
Nc1ncnc2c1cnn2Cc1ccc(Cl)cc1 | > 100 | > 100 | > 100 | > 100 |  | > 100 |  | > 100 |  | > 100 |  | > 100 |  | > 100 | > 100 | > 100 | > 100 | > 100 |  | > 100
NC(=O)c1ccc2nc3c(n2c1)C(=O)C(=O)c1ccccc1-3 | 1.39 | 2.8 | 1.78 | 3.18 | 1.64 | 3.02 | 2.4 | 6.01 | 0.415 | 2.54 | 1.04 | 2.78 | 0.436 | 1.66 | 0.171 | 0.311 | 1.63 | 2.99 | 0.57 | 1.78
CC1(C)CC2(C)CC1CC2NC(=O)CCN1CCOCC1 (stereo not given) |  | > 100 |  | > 100 |  | > 100 |  | > 100 |  | > 100 |  | > 100 |  | > 100 |  | > 100 |  | > 100 |  | > 100
C=CC1=C(C)C2=NC1=CC1=NC(=CC3=C(C)C4=C(O)C(C(=O)OC)C(=C5NC(=C2)C(C)C5CCC(=O)OC)C4=N3)C(CC)=C1C (stereo not given) |  | > 100 |  | > 100 |  | > 100 |  | > 100 |  | > 100 |  | > 100 |  | > 100 |  | > 100 |  | > 100 |  | > 100
CCNCCCn1c2c(c3ccc([N+](=O)[O-])cc3c1=O)C(=O)c1cc(OC)cnc1-2 | 0.107 | 1.89 | 0.0589 | 1.62 | 0.136 | 0.464 | 0.0579 | 1.25 | 0.036 | 12 | 0.249 | 8.67 | 0.0527 | 1.5 | 0.162 | 0.715 | 0.0406 | 0.31 | 0.157 | 0.92
NS(=O)(=O)c1ccc(NC(=O)c2cccc3cc4ccccc4nc23)cc1 |  | > 100 |  | > 100 |  | > 100 |  | > 100 |  | > 100 |  | > 100 |  | > 100 |  | > 100 |  | > 100 |  | > 100
CCOC(=O)Nc1nc2c(C)cccc2s1 | > 100 | > 100 | > 100 | > 100 | > 100 | > 100 | 46.8 | > 100 | 47.4 | > 100 | 48.9 | > 100 | 55.3 | > 100 | 56.3 | > 100 | > 100 | > 100 | 39.8 | > 100
COc1ccc(OC)c2c(=S)c3ccccc3[nH]c12 |  | > 100 |  | > 100 |  | > 100 |  | > 100 |  | > 100 |  | > 100 |  | > 100 |  | > 100 |  | > 100 |  | > 100
Cc1c(N=Cc2ccc(N(CCC#N)CCC#N)cc2)c(=O)n(-c2ccccc2)n1C |  | 86.1 |  | > 100 |  | 92.1 |  | > 100 |  | > 100 |  | > 100 |  | > 100 |  | > 100 |  | 90.3 |  | > 100
